Measured values published in patent EP0820452B1, “CARBONYL-PIPERAZINYL AND PIPERIDINIL COMPOUNDS WHICH INHIBIT FARNESYL PROTEIN TRANSFERASE” (SCHERING CORPORATION, priority 1995, dated 1996).

Molecular target: FTase (Homo sapiens, UniProt P49354+P49356)
Test: in vitro assay measuring the inhibition of FTase (FPT IC50), methods of WO95/10516
Format: biochemical
Details: concentration of compound which inhibits 50% of FPT transferase
Source text: Measurements of pharmacological activity of the present compounds can be made based upon a […] (i.e. FPT lC50), cell mat assay (GGPT lC50) or in vitro tumor activity (Cos Cell lC50) as described by the methods in W095/10516.
FPT lC50 values refer to concentration, in micromoles (µM), of compound which inhibits 50% of FPT transferase

Chain of FTase (P49356 whole entry, one chain of several): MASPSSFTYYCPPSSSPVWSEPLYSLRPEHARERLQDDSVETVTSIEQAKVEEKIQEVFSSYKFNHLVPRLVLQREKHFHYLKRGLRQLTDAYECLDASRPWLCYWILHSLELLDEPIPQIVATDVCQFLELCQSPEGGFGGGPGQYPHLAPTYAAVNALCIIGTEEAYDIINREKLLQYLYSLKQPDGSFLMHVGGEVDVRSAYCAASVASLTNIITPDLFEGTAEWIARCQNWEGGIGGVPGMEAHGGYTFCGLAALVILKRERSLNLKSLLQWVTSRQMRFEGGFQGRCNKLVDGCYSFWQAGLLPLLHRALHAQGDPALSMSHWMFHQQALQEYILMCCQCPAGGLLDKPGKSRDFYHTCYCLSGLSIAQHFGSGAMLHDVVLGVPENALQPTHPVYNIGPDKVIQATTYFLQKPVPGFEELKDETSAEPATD

**Q.** Which IC50 does the source give for `CC(C)NC(=O)CC1CN(C(=O)c2ccc3ccccc3c2)CCN1C(=O)Cc1ccncc1` (stereo not shown) here?
**A.** Its IC50 is greater than 50 µM.
